# Experimental data reported in paper PMC11173382, “In Vitro Investigations into the Potential Drug Interactions of Pseudoginsenoside DQ Mediated by Cytochrome P450 and Human Drug Transporters” (Molecules, 2024).
# Legend:
# hOCT2 = biological target: T1, hOCT2 (Homo sapiens, UniProt O15244); assay: Substrates uptake assay, S2-OCT2 cells (14C-TEA); type: in vitro ADME; conditions: inhibitor 600 μM
# T1 construct: host or cells: S2-OCT2
# T1 sequence (O15244 1-555): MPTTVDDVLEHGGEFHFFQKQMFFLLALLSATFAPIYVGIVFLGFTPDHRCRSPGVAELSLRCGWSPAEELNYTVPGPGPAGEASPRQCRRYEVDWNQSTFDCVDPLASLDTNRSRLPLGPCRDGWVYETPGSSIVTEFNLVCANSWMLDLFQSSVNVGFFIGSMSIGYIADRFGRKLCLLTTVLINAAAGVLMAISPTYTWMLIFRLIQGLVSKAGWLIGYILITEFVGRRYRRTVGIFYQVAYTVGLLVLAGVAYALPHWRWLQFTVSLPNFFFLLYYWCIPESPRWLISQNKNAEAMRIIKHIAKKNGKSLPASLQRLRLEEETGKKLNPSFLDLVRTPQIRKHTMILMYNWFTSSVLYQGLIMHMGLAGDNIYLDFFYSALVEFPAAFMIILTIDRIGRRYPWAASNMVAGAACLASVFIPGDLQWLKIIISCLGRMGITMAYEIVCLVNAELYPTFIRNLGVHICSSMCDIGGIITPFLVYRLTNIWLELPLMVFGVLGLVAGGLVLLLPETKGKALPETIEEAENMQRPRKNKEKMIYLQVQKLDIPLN
# From the text: (§1) Drug transporters mediate the cellular uptake and efflux of their substrates. Therefore, cell lines overexpressing a drug transporter can be utilized to investigate inhibitors of the transporter by assessing changes in substrate uptake. For each drug transporter, we selected a well-characterized inhibitor as the positive control. Radiolabeled substrates were used to indicate the decrease in transport efficiency when the drug transporters were inhibited by PDQ or the control inhibitors.
# (§2) The concentrations of the control drugs and the substrates were stated in the assay details. Working solutions of the control inhibitors, the radiolabeled substrates, and each dose of PDQ were prepared at 200 times (200×) more concentrated solutions with DMSO for further dilution.
# (§3) Transporter-overexpressed cell lines. Human organic anion transporter-overexpressed cell lines MDCKII-OAT1 and S2-OAT3, human organic anion transport polypeptide-overexpressed cell lines HEK293A-OATP1B1 and HEK293A-OATP1B3, human organic cation transporter 2-overexpressed cell line S2-OCT2, and human multi-drug resistance protein MDR1 (or P-gp)-overexpressed cell line MDCKII-MDR1 were gifts from Japan Fuji Biomedical Co., Ltd. (Fuji, Shizuoka Prefecture, Japan). Breast cancer resistance protein-overexpressed vesicles (sf9-BCRP vesicle) were purchased from GenoMembrane Co., Ltd. (Yokohama, Kanagawa, Japan).
# (§4) Substrates uptake assay. In this assay, we studied the inhibition of PDQ against transporters OAT1, OAT3, OCT2, OATP1B1 and OATP1B3 with MDCKII-OAT1, S2-OAT3, S2-OCT2, HEK293A-OATP1B1and HEK293A-OATP1B3 cells, respectively. The radiolabeled substrates for OAT1, OAT3, OATP1B1, OATP1B3 and OCT2 were […], respectively (Table 5). Probenecid ([…]) was the positive control inhibitor of OAT1 and OAT3, while rifampicin ([…]) served as the control drug of OATP1B1 and OATP1B3. For OCT2, we used […] cimetidine to compare with the inhibitory effect of PDQ. Two times (2×) more concentrated working solutions of the drugs and the substrate were prepared with Dulbecco’s phosphate-buffered saline (DPBS, Gibco, Grand Island, NY, USA.). Then, an equal volume of 2× drug solution and 2× radiolabeled substrate solution were mixed as the working mix. All reagents were pre-warmed to 37 °C.
# (§5) The cells were digested with 0.05% trypsin/EDTA. The density of the single-cell suspension was adjusted to 2.0 × 10^5 cells/mL for S2 cells and to 1.5 × 10^5 cells/mL for MDCK II and HEK293A cells. The cell suspension was then added to the reservoirs of the 24-well plate for culture until full confluency. The medium in the wells was removed, and the wells were washed with DPBS. Then, the plate was incubated for 10 min with pre-warmed DPBS in the wells. After removing DPBS, […] of working mix was added to each well to initiate the substrate uptake process. The reaction time was 5 min for S2-OCT2 cells, while the other four types of cells were incubated with the reaction mix for 2 min. Cold DPBS was used to terminate the substrate transportation. To each well, […] NaOH ([…]) was added to lyse the cells. Then, […] cell lysate was transferred to the counting vials, and 3 mL scintillation cocktail (Aquasol-2, PerkinElmer, Waltham, MA, USA) was added. […] Each sample was replicated three times (N = 3).
# (§6) In = [100 × (U − U0)/(Uc − U0)]%(3)
# (§7) The results were expressed as mean ± standard deviation (SD) and analyzed with GraphPad Prism 8.0 software (CA, USA). The IC50 of PDQ was curve-fitted with the FORECAST function. Statistical significance was calculated using a two-tailed test, and a p value < 0.05 was considered as significant.
# CYP2C9 = system: CYP2C9; set-up: method as in PMID 30078466; conditions: cited from earlier work
# hOAT3 = biological target: T2, hOAT3 (Homo sapiens, UniProt Q8TCC7); assay: Substrates uptake assay, S2-OAT3 cells (3H-ES); type: in vitro ADME; conditions: inhibitor 100 μM
# T2 sequence (Q8TCC7 1-542): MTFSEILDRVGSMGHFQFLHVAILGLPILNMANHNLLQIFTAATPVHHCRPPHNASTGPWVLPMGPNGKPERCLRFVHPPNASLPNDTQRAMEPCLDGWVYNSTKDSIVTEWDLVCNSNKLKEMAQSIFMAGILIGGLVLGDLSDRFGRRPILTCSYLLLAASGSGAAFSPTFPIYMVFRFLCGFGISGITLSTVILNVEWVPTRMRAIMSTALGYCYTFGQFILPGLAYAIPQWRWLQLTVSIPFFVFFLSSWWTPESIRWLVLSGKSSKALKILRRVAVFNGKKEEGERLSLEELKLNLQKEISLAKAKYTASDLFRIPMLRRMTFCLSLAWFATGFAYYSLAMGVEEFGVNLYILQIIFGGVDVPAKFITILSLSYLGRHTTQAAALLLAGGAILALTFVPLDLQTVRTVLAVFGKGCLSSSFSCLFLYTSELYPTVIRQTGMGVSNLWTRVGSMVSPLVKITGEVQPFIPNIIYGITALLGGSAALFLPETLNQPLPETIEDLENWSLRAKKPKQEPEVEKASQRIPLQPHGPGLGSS
# From the text: as §1, §2, §3, §4, §5, §6, §7
# hOATP1B3 = biological target: T3, hOATP1B3 (Homo sapiens, UniProt Q9NPD5); assay: Substrates uptake assay, HEK293A-OATP1B3 cells (3H-EG); type: in vitro ADME; conditions: inhibitor 60 μM
# T3 sequence (Q9NPD5 1-702): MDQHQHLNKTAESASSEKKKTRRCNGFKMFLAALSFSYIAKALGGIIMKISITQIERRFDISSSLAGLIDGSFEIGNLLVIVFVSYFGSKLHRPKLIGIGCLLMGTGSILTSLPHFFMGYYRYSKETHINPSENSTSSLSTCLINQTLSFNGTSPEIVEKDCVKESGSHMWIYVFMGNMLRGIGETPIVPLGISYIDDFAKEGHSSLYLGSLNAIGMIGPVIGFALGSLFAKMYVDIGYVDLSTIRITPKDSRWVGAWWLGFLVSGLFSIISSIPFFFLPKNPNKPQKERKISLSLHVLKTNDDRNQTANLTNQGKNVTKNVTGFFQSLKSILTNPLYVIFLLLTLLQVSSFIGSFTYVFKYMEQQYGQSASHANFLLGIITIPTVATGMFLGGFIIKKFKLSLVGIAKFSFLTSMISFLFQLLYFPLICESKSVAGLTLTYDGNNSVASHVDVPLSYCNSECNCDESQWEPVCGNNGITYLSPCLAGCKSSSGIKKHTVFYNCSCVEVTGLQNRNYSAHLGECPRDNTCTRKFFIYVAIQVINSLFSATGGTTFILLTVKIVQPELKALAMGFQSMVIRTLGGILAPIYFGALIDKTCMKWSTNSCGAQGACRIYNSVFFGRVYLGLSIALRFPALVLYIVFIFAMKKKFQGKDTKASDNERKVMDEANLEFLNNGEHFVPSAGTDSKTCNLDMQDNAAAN
# From the text: as §1, §2, §3, §4, §5, §6, §7
# hOATP1B1 = biological target: T4, hOATP1B1 (Homo sapiens, UniProt Q9Y6L6); assay: Substrates uptake assay, HEK293A-OATP1B1 cells (3H-ES); type: in vitro ADME; conditions: inhibitor 60 μM
# T4 sequence (Q9Y6L6 1-691): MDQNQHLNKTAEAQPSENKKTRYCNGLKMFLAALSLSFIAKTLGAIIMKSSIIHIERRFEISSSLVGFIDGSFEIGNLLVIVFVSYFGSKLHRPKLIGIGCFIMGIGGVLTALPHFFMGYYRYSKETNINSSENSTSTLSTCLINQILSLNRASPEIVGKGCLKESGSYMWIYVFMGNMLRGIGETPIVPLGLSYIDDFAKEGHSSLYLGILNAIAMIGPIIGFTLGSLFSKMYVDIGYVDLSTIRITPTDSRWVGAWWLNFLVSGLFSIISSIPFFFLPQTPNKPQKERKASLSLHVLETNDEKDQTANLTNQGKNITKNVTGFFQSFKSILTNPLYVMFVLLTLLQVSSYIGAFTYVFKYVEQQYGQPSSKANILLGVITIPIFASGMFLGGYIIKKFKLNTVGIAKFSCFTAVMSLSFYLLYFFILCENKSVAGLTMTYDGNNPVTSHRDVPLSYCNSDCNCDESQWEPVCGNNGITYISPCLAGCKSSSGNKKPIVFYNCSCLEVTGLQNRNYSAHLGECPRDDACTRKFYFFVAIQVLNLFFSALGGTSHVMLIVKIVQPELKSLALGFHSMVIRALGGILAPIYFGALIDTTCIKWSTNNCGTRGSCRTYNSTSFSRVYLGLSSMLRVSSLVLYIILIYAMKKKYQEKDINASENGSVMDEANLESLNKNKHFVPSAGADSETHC
compound,measurement,setting,value
"CN/C(=N/CCSCc1nc[nH]c1C)NC#N [Cimetidine, reference compound]",DPM (14C-TEA uptake by OCT2),hOCT2,417.3±44.8 DPM
CC(C)=CCC[C@](C)(O[C@@H]1O[C@H](CO[C@@H]2O[C@H](CO)[C@@H](O)[C@H](O)[C@H]2O)[C@@H](O)[C@H](O)[C@H]1O)[C@H]1CC[C@]2(C)[C@@H]1[C@H](O)C[C@@H]1[C@@]3(C)CC[C@H](O[C@@H]4O[C@H](CO)[C@@H](O)[C@H](O)[C@H]4O[C@@H]4O[C@H](CO)[C@@H](O)[C@H](O)[C@H]4O)C(C)(C)[C@@H]3CC[C@]12C [Ginsenoside Rb1],IC50,CYP2C9,2400 nM
"CCCN(CCC)S(=O)(=O)c1ccc(C(=O)O)cc1 [Probenecid, reference compound]",DPM (3H-ES uptake by OAT3),hOAT3,1709.3±343.6 DPM
"CO[C@H]1/C=C/O[C@@]2(C)Oc3c(C)c(O)c4c(O)c(c(/C=N/N5CCN(C)CC5)c(O)c4c3C2=O)NC(=O)/C(C)=C\C=C\[C@H](C)[C@H](O)[C@@H](C)[C@@H](O)[C@@H](C)[C@H](OC(C)=O)[C@@H]1C [Rifampicin, reference compound]",DPM (3H-EG uptake by OATP1B3),hOATP1B3,769.0±126.5 DPM
same,DPM (3H-ES uptake by OATP1B1),hOATP1B1,2798.7±891.8 DPM
